Data published in ChEMBL document CHEMBL1134887, “Muraymycins, novel peptidoglycan biosynthesis inhibitors: semisynthesis and SAR of their derivatives” (Bioorg Med Chem Lett, 2002).
Calls of active or inactive are those of the source. The calls are words filed in the database; no cut-off is given here.

How the values were obtained:
Assay type in all cases: functional
[1] = test system: Staphylococcus epidermidis; experiment: Inhibitory activity against MraY/MurG at a concentration of 50 ug/mL; No activity
[2] = test system: Staphylococcus epidermidis; experiment: Inhibitory activity against MraY/MurG at a concentration of 25 ug/mL; No activity
[3] = test system: Staphylococcus epidermidis; experiment: Inhibitory activity against MraY/MurG at a concentration of 100 ug/mL; No activity
[4] = test system: Staphylococcus epidermidis; experiment: Inhibitory activity against MraY/MurG at a concentration of 6.25 ug/mL; No activity
[5] = test system: Staphylococcus epidermidis; experiment: Compound was tested for reduction in the production of lipid II relative to the control(judged by intensity) on the film, inhibition of either MraY or MurG at a dose of 100 ug/mL
[6] = test system: Staphylococcus epidermidis; experiment: Compound was tested for reduction in the production of lipid II relative to the control(judged by intensity) on the film, inhibition of either MraY or MurG at a dose of 6.25 ug/mL
[7] = test system: Staphylococcus epidermidis; experiment: Compound was tested for reduction in the production of lipid II relative to the control(judged by intensity) on the film, inhibition of either MraY or MurG at a dose of 50 ug/mL
[8] = test system: Staphylococcus epidermidis; experiment: Compound was tested for reduction in the production of lipid II relative to the control(judged by intensity) on the film, inhibition of either MraY or MurG at a dose of 25 ug/mL
[9] = test system: Staphylococcus epidermidis; experiment: Inhibitory activity against MraY/MurG at a concentration of 100 ug/mL; Not activity
[10] = test system: Staphylococcus epidermidis; experiment: Inhibitory activity against MraY/MurG at a concentration of 6.25 ug/mL; Not activity
[11] = test system: Staphylococcus epidermidis; experiment: Inhibitory activity against MraY/MurG at a concentration of 6.25 ug/mL No activity

CO[C@H]1[C@H](OC(C2C(=O)N(c3ccc(F)cc3)C(=O)N2CCCNC(=O)[C@@H](NC(=O)[C@@H](NC(=O)N[C@H](C(=O)O)C(C)C)[C@@H]2CCN=C(N)N2)[C@@H](O)C(C)C)[C@H]2O[C@@H](n3ccc(=O)[nH]c3=O)[C@H](O)[C@@H]2O)O[C@H](CNC(=O)Nc2ccc(F)cc2)[C@H]1O (some centres undefined)
Inhibitory activity [1]: Active | Inhibitory activity [2]: Active | Inhibitory activity [3]: Active | Inhibitory activity [4]: Active

CCCCCN1C(=O)C(C(O[C@@H]2O[C@H](CN)[C@@H](O)[C@H]2OC)[C@H]2O[C@@H](n3ccc(=O)[nH]c3=O)[C@H](O)[C@@H]2O)N(CCCNC(=O)[C@@H](NC(=O)[C@@H](NC(=O)N[C@H](C(=O)O)C(C)C)[C@@H]2CCN=C(N)N2)[C@@H](O)C(C)C)C1=O (some centres undefined)
Inhibitory activity [1]: Active | Inhibitory activity [5]: Active | Inhibitory activity [2]: inactive | Inhibitory activity [4]: inactive

CO[C@H]1[C@H](OC(C2C(=O)N(Cc3ccccc3)C(=O)N2CCCNC(=O)[C@@H](NC(=O)[C@@H](NC(=O)N[C@H](C(=O)O)C(C)C)[C@@H]2CCN=C(N)N2)[C@@H](O)C(C)C)[C@H]2O[C@@H](n3ccc(=O)[nH]c3=O)[C@H](O)[C@@H]2O)O[C@H](CN)[C@H]1O (some centres undefined)
Inhibitory activity [5]: Active | Inhibitory activity [6]: Active | Inhibitory activity [7]: Active | Inhibitory activity [8]: Active

CCCCCCNC(=O)NC[C@H]1O[C@@H](OC(C2C(=O)N(CCCCCC)C(=O)N2CCCNC(=O)[C@@H](NC(=O)[C@@H](NC(=O)N[C@H](C(=O)O)C(C)C)[C@@H]2CCN=C(N)N2)[C@@H](O)C(C)C)[C@H]2O[C@@H](n3ccc(=O)[nH]c3=O)[C@H](O)[C@@H]2O)[C@H](OC)[C@@H]1O (some centres undefined)
Inhibitory activity [1]: Active | Inhibitory activity [2]: Active | Inhibitory activity [3]: Active | Inhibitory activity [4]: Active

COc1ccc(NC(=O)NC[C@H]2O[C@@H](OC(C3C(=O)N(c4ccc(OC)cc4)C(=O)N3CCCNC(=O)[C@@H](NC(=O)[C@@H](NC(=O)N[C@H](C(=O)O)C(C)C)[C@@H]3CCN=C(N)N3)[C@@H](O)C(C)C)[C@H]3O[C@@H](n4ccc(=O)[nH]c4=O)[C@H](O)[C@@H]3O)[C@H](OC)[C@@H]2O)cc1 (some centres undefined)
Inhibitory activity [1]: Active | Inhibitory activity [2]: Active | Inhibitory activity [3]: Active | Inhibitory activity [4]: Active

CCCCCCCCCCCCN1C(=O)C(C(O[C@@H]2O[C@H](CN)[C@@H](O)[C@H]2OC)[C@H]2O[C@@H](n3ccc(=O)[nH]c3=O)[C@H](O)[C@@H]2O)N(CCCNC(=O)[C@@H](NC(=O)[C@@H](NC(=O)N[C@H](C(=O)O)C(C)C)[C@@H]2CCN=C(N)N2)[C@@H](O)C(C)C)C1=O (some centres undefined)
Inhibitory activity [5]: Active | Inhibitory activity [6]: Active | Inhibitory activity [7]: Active | Inhibitory activity [8]: Active

CCCCCCCCNC(=O)NC[C@H]1O[C@@H](OC(C2C(=O)N(CCCCCCCC)C(=O)N2CCCNC(=O)[C@@H](NC(=O)[C@@H](NC(=O)N[C@H](C(=O)O)C(C)C)[C@@H]2CCN=C(N)N2)[C@@H](O)C(C)C)[C@H]2O[C@@H](n3ccc(=O)[nH]c3=O)[C@H](O)[C@@H]2O)[C@H](OC)[C@@H]1O (some centres undefined)
Inhibitory activity [1]: Active | Inhibitory activity [2]: Active | Inhibitory activity [9]: Active | Inhibitory activity [4]: Active

CO[C@H]1[C@H](OC(C2C(=O)N(c3ccc(F)cc3)C(=O)N2CCCNC(=O)[C@@H](NC(=O)[C@@H](NC(=O)N[C@H](C(=O)O)C(C)C)[C@@H]2CCN=C(N)N2)[C@@H](O)C(C)C)[C@H]2O[C@@H](n3ccc(=O)[nH]c3=O)[C@H](O)[C@@H]2O)O[C@H](CN)[C@H]1O (some centres undefined)
Inhibitory activity [10]: Active | Inhibitory activity [5]: Active | Inhibitory activity [7]: Active | Inhibitory activity [8]: Active

CCCCCNC[C@H]1O[C@@H](OC([C@H]2O[C@@H](n3ccc(=O)[nH]c3=O)[C@H](O)[C@@H]2O)[C@@H](C(=O)O)N(CCCCC)CCCNC(=O)[C@@H](NC(=O)[C@@H](NC(=O)N[C@H](C(=O)O)C(C)C)[C@@H]2CCN=C(N)N2)[C@@H](O)C(C)C)[C@H](OC)[C@@H]1O (some centres undefined)
Inhibitory activity [1]: inactive | Inhibitory activity [2]: inactive | Inhibitory activity [3]: inactive | Inhibitory activity [4]: inactive

CO[C@H]1[C@H](OC([C@H]2O[C@@H](n3ccc(=O)[nH]c3=O)[C@H](O)[C@@H]2O)[C@@H](C(=O)O)N(CCCCCCCCCCCCN2CCOCC2)CCCNC(=O)[C@@H](NC(=O)[C@@H](NC(=O)N[C@H](C(=O)O)C(C)C)[C@@H]2CCN=C(N)N2)[C@@H](O)C(C)C)O[C@H](CN)[C@H]1O (some centres undefined)
Inhibitory activity [1]: Active | Inhibitory activity [5]: Active | Inhibitory activity [2]: inactive | Inhibitory activity [4]: inactive

CCCCCCCCCCCCNC(=O)NC[C@H]1O[C@@H](OC(C2C(=O)N(CCCCCCCCCCCC)C(=O)N2CCCNC(=O)[C@@H](NC(=O)[C@@H](NC(=O)N[C@H](C(=O)O)C(C)C)[C@@H]2CCN=C(N)N2)[C@@H](O)C(C)C)[C@H]2O[C@@H](n3ccc(=O)[nH]c3=O)[C@H](O)[C@@H]2O)[C@H](OC)[C@@H]1O (some centres undefined)
Inhibitory activity [1]: Active | Inhibitory activity [2]: Active | Inhibitory activity [3]: Active | Inhibitory activity [4]: Active

CO[C@H]1[C@H](OC([C@H]2O[C@@H](n3ccc(=O)[nH]c3=O)[C@H](O)[C@@H]2O)[C@@H](C(=O)O)N(CCCNC(=O)[C@@H](NC(=O)[C@@H](NC(=O)N[C@H](C(=O)O)C(C)C)[C@@H]2CCN=C(N)N2)[C@@H](O)C(C)C)Cc2ccc(-c3ccccc3)cc2)O[C@H](CNCc2ccc(-c3ccccc3)cc2)[C@H]1O (some centres undefined)
Inhibitory activity [1]: Active | Inhibitory activity [2]: Active | Inhibitory activity [3]: Active | Inhibitory activity [4]: Active

CCCCCN(CCCNC(=O)[C@@H](NC(=O)[C@@H](NC(=O)N[C@H](C(=O)O)C(C)C)[C@@H]1CCN=C(N)N1)[C@@H](O)C(C)C)[C@H](C(=O)O)C(O[C@@H]1O[C@H](CN)[C@@H](O)[C@H]1OC)[C@H]1O[C@@H](n2ccc(=O)[nH]c2=O)[C@H](O)[C@@H]1O (some centres undefined)
Inhibitory activity [1]: Active | Inhibitory activity [5]: Active | Inhibitory activity [2]: inactive | Inhibitory activity [4]: inactive

CO[C@H]1[C@H](OC([C@H](NCCCNC(=O)[C@@H](NC(=O)[C@@H](NC(=O)N[C@H](C(=O)O)C(C)C)[C@@H]2CCN=C(N)N2)[C@@H](O)C(C)C)C(=O)O)[C@H]2O[C@@H](n3ccc(=O)[nH]c3=O)[C@H](O)[C@@H]2O)O[C@H](C/N=C(C)/C=C(/C)O)[C@H]1O (some centres undefined)
Inhibitory activity [1]: Active | Inhibitory activity [2]: Active | Inhibitory activity [3]: Active | Inhibitory activity [4]: Active

CCCCCCCCCCCCN(CCCNC(=O)[C@@H](NC(=O)[C@@H](NC(=O)N[C@H](C(=O)O)C(C)C)[C@@H]1CCN=C(N)N1)[C@@H](O)C(C)C)[C@H](C(=O)O)C(O[C@@H]1O[C@H](CN)[C@@H](O)[C@H]1OC)[C@H]1O[C@@H](n2ccc(=O)[nH]c2=O)[C@H](O)[C@@H]1O (some centres undefined)
Inhibitory activity [5]: Active | Inhibitory activity [2]: inactive | Inhibitory activity [7]: Active | Inhibitory activity [11]: inactive

CO[C@H]1[C@H](OC([C@H](NCCCNC(=O)[C@@H](NC(=O)[C@@H](NC(=O)N[C@H](C(=O)O)C(C)C)[C@@H]2CCN=C(N)N2)[C@@H](O)C(C)C)C(=O)O)[C@H]2O[C@@H](n3ccc(=O)[nH]c3=O)[C@H](O)[C@@H]2O)O[C@H](CN)[C@H]1O (some centres undefined)
Inhibitory activity [5]: Active | Inhibitory activity [6]: Active | Inhibitory activity [7]: Active | Inhibitory activity [8]: Active
